Assay results as given in PMC10451377, “Rationally Designed Pyrimidine Compounds: Promising Novel Antibiotics for the Treatment of Staphylococcus aureus-Associated Bovine Mastitis” (Antibiotics, 2023).
In brackets after ≈: the same amount, converted by molar mass. Where two headings read alike, the source gives them in different places.

Experiments:
[1] = test system: S. aureus; parameters: method as in PMID 20421948; settings: compared with PC1; cited from earlier work
[2] = test system: S. aureus guanine riboswitch; parameters: method as in PMID 20421948; settings: cited from earlier work
[3] = parameters: method as in PMID 20421948; settings: presence of water and oxygen; cited from earlier work
[4] = test system: Staphylococcus aureus CMRSA-2; test: Broth microdilution MIC; assay type: cell-based
Source text: (§1) Reference strains for this study (S. aureus ATCC 29213, ATCC 29740 [bovine mastitis strain Newbould], S. epidermidis ATCC 12228, E. coli ATCC 35695, E. faecalis ATCC 29212) were obtained from the American Type Culture Collection (ATCC, Rockville, MD). S. aureus strains CMRSA-10 and CMRSA-2 were obtained from the Laboratoire de santé publique du Québec (LSPQ, Sainte-Anne-de-Bellevue, QC, Canada) and are Canadian CA-MRSA USA-300 and HA-MRSA USA-100 clones, respectively. The strain E. coli imp4213 (lptD), used as a control in MIC assays, is a derivative of E. coli ATCC 35695 (E. coli MC4100) with an increased membrane permeability. […] Other MRSA strains used in this study are clinical isolates of human origin obtained from the microbiology laboratory of the Centre Hospitalier Universitaire de Sherbrooke (CHUS, Sherbrooke, QC, Canada). Bovine mastitis strains (S. aureus, S. chromogenes, S. haemolyticus, S. hominis, S. simulans) were obtained from the Canadian Bovine Mastitis and Milk Quality Research Network (CBRQMN, St-Hyacinthe, QC, Canada). Among these strains, S. aureus 2117 is a high producer of biofilm and was used in the biofilm-eradication assay. S. epidermidis isolates were provided by Centre de Recherche en Infectiologie (CRI) de Québec (Québec, QC, Canada).

[5] = test system: Staphylococcus aureus CMRSA-10; test: Broth microdilution MIC; assay type: cell-based
Source text: as §1

[6] = test system: Bacillus subtilis xpt-lacZ; test: Broth microdilution MIC; assay type: cell-based; settings: B. subtilis xpt-lacZ, read-out: Broth Microdilution MIC
[7] = LDH release assay; assay type: cell-based; settings: human, HepG2 cells
[8] = MTT assay; assay type: cell-based; settings: bovine, MAC-T cells, 24 h
[9] = MTT assay; assay type: cell-based; settings: human, HepG2 cells
[10] = test system: all reference staphylococci strains tested, including MRSA; test: Broth microdilution MIC, summary over reference staphylococci; settings: Staphylococcus aureus, read-out: MIC ranging, against all reference staphylococci strains tested
[11] = test system: Staphylococcus aureus ATCC 29213; test: Broth microdilution MIC; settings: ATCC29213, read-out: Broth Microdilution MIC
[12] = test system: Enterococcus faecalis ATCC 29212; test: Broth microdilution MIC; settings: ATCC29212, read-out: Broth Microdilution MIC
[13] = LDH release assay; assay type: cell-based; settings: bovine, MAC-T cells, 24 h
[14] = test system: Escherichia coli ATCC 35695; test: Broth microdilution MIC; settings: ATCC35695, read-out: Broth Microdilution MIC
[15] = test system: guanine riboswitch-lacZ fusion construct (xpt-lacZ); test: Riboswitch regulation assay (lacZ-gene reporter); assay type: cell-based, B. subtilis
Source text: The novel pyrimidine compounds, especially PC206, display specificity and potency against some staphylococci but not the other bacterial genus (Table 1 and Table 2). Because they are structurally derived from PC1 and PC2, these novel antibiotic candidates are expected to have the same mode of action. […] To verify this hypothesis, a strain of B. subtilis with a guanine riboswitch-lacZ fusion construct (named xpt-lacZ) integrated in its chromosome was exposed to these new antimicrobials. […] Therefore, it is an adequate reporter species. The metabolization of substrate ONPG into colored ONP was normalized by the bacterial suspension absorbance at 600 nm (Miller units) and relativized to the untreated condition.
β-galactosidase gene expression in the presence of the new pyrimidine analogs was studied, using an xpt-lacZ transcriptional fusion construct integrated in the genome of B. subtilis as previously described. Briefly, cultures were grown for 5 h at 35 °C in CAMHB, from an initial optical density of 0.05 at 600 nm (OD600), and then diluted 1:20 and in the presence of different concentrations of the compounds tested. Cultures were centrifuged for 10 min at 13,100 rpm, the supernatant was discarded, and pellets were suspended in a Z-buffer (NaH2PO4 40 mM, Na2HPO4 60 mM, MgSO4 1 mM, KCl 10 mM). Cultures OD600 were measured, and bacteria were then lysed with lysozyme (1 mg/mL) and β-mercaptoethanol 50 mM for 30 min. Lysates were centrifuged for 10 min at 13,100 rpm, and supernatants were incubated for 5 min at 30 °C with the substrate orthonitrophenyl-β-galactoside (ONPG; Sigma Aldrich). Reactions were stopped with Na2CO3 1M, supernatants OD420 were measured, and Miller units were calculated. A decrease in β-galactosidase activity indicated binding of the test compound to the riboswitch. Guanine and oxacillin were used as […] controls, respectively. The formula to measure Miller units is as follows: Millerunits=1000×OD420/t·v·OD600
Here, t represents the time of incubation with ONPG, and v represents the volume of the reaction.

[16] = test system: Escherichia coli ΔlptD4213; test: microbe, parasite or virus in culture; assay type: cell-based; settings: read-out: Broth Microdilution MIC
Source text: as §1

[17] = test system: Staphylococcus epidermidis ATCC 12228; test: Broth microdilution MIC; settings: ATCC12228, read-out: Broth Microdilution MIC
[18] = test system: HepG2 and MAC-T cells versus S. aureus Newbould; test: Selectivity ratios over both assays and both cell lines; assay type: cell-based; settings: over MTT and LDH assays
Experimental: All CC50 values are reported in Table 3, and plots are provided in the Supplementary Information (Supplementary Figure S2). PC371 had no effect on cell viability even at the highest concentrations tested (CC50 > 600 μM) in both the MTT and the LDH assay and for the two cell lines tested. For the three other compounds, in both cell lines and both assays, a correlation was observed between the effect on cell viability and the length of their aliphatic chain. CC50 of PC372 (5 carbons) was higher than that of PC206 (6 carbons), and both were higher than that of PC383 (10 carbons). Indeed, for the MAC-T cells in the MTT assay, the values were >600 μM (PC372), 317 μM (PC206), and 13.5 μM (PC383). Again, for the MAC-T cell line, the values for the LDH assay were >600 μM (PC372 and PC206) and 23.6 μM (PC383). Similar results were obtained with the HepG2 cells. […] Overall, the MAC-T cells tolerated better exposure to the compounds than the HepG2 cells. To assess the selectivity of the PC2 analogs towards S. aureus, selectivity ratios were calculated. These ratios were obtained by dividing the cytotoxicity CC50 values of an analog by its MIC against S. aureus Newbould. It was not possible to calculate the selectivity ratio for PC371 as its CC50 and MIC values exceeded the maximum values tested.

[19] = test system: all tested bacterial strains, including non-staphylococci strains; test: Broth microdilution MIC, summary over all strains tested; settings: read-out: MIC against all tested bacterial strains
[20] = CMRSA2, S. aureus CMRSA-2, read-out: Broth Microdilution MIC
[21] = CMRSA10, S. aureus CMRSA-10, read-out: Broth Microdilution MIC

Compound | Binding to the guanine riboswitch [2] | Chemical stability [3] | CC50 at 24 h [7] | MIC [4, 20] | MIC [5, 21] | CC50 at 24 h [8] | CC50 at 24 h [9] | MIC [11] | MIC [12] | CC50 at 24 h [13] | MIC [6] | MIC [14] | MIC [16] | MIC [17] | Selectivity ratio (CC50/MIC against S. aureus Newbould), overall [18] | other results
Nc1cc(O)nc(N)n1 [PC2] | bind the riboswitch ex vivo | more chemically stable | – | – | – | – | – | – | – | – | – | – | – | – | – | Antimicrobial activity against S. aureus [1]: much lower antimicrobial activity
Nc1nc(N)c(N)c(O)n1 [PC1, 2,5,6-triaminopyrimidine-4-one, reference compound] | binding the guanine riboswitch of S. aureus | chemically unstable | – | – | – | – | – | – | – | – | – | – | – | – | – | MIC ([4]; CMRSA2, S. aureus CMRSA-2, in the presence of 1.5 mM DTT, read-out: Broth Microdilution MIC): 1 µg/mL; MIC ([5]; CMRSA10, S. aureus CMRSA-10, in the presence of 1.5 mM DTT, read-out: Broth Microdilution MIC): 2 µg/mL; MIC ([6]; in the presence of 1.5 mM DTT): > 128 µg/mL
CCCCCNc1cc(N)nc(N)n1 [PC372] | – | – | 394 ± 15 µM | 16 µg/mL (≈ 81.9 µM) | 8 µg/mL (≈ 41 µM) | > 600 µM | 341 ± 32 µM | 16 µg/mL (≈ 81.9 µM) | > 128 µg/mL | > 600 µM | 128 µg/mL (≈ 656 µM) | > 128 µg/mL | > 128 µg/mL | 8 µg/mL (≈ 41 µM) | above 3.9 | MIC [10]: 8 to 16 µg/mL (≈ 41 to 81.9 µM); Miller units remaining, relative to the untreated condition ([15]; 64 µg/mL): 50%
CCCCCCCCCCNc1cc(N)nc(N)n1 [PC383] | – | – | 6.6 ± 0.7 µM | 4 µg/mL (≈ 15.1 µM) | 4 µg/mL (≈ 15.1 µM) | 13.5 ± 1.5 µM | 11.7 ± 5.8 µM | 4 µg/mL (≈ 15.1 µM) | 4 µg/mL (≈ 15.1 µM) | 23.6 ± 8.4 µM | 4 µg/mL (≈ 15.1 µM) | 16 µg/mL (≈ 60.3 µM) | 8 µg/mL (≈ 30.1 µM) | 4 µg/mL (≈ 15.1 µM) | ~1 | MIC [19]: 4 to 16 µg/mL (≈ 15.1 to 60.3 µM); Effect on Miller units ([15]; highest evaluated dose 2 µg/mL): did not impact Miller units’ expression
